# Biological target: B-Raf (V600E)-kinase (Homo sapiens (Human), UniProt P15056, V600E)
# Assay: Kinase test B-RAF (V600E)
# Format: biochemical
# Conditions: not given
# How it was run: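 Read-out is DELFIA europium TRF of phospho-MEK (Ser217/221) on biotinylated MEK1 bound to streptavidin plates, IC50 from dose-response. Reaction ran 60 min at RT with 250 μM ATP, after a 24 h RT preincubation of compound with B-Raf (V600E) kinase, 5% DMSO final.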
# Chain of B-Raf (V600E)-kinase (P15056 whole entry V600E): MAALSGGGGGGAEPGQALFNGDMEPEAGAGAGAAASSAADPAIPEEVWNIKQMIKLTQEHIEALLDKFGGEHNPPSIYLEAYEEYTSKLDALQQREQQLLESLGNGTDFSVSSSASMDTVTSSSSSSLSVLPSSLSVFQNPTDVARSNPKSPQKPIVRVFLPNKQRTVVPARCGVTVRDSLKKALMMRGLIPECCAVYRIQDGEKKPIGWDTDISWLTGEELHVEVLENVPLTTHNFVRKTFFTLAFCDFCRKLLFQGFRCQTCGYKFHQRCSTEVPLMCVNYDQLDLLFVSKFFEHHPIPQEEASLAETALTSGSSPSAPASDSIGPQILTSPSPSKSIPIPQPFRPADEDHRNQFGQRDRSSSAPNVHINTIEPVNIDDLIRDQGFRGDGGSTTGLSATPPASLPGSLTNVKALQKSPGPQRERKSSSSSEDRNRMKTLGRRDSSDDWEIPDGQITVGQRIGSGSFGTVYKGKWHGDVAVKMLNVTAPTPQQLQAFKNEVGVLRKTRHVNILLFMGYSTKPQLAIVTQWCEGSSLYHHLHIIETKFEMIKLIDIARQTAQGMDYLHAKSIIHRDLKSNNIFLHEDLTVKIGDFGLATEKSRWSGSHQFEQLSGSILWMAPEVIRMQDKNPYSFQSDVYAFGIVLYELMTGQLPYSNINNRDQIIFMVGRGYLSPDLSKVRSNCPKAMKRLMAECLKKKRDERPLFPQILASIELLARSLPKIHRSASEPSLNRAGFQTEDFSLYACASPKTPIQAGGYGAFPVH
row,Compound,IC50 [nM]
1,Cc1ccc(C(=O)Nc2ccc(C#N)c(C(F)(F)F)c2)cc1Nc1ncnc2cnc(N3CCN(C)CC3)nc12 [III-311],2

# Same assay, conditions: B-RAF (V600E) kinase test, 250 μM ATP
row,Compound,IC50 [nM]
1,Cc1ccc(C(=O)Nc2ccc(C#N)c(C(F)(F)F)c2)cc1Nc1ncnc2cnc(N3CCCC3)nc12 [III-273],31
2,Cc1ccc(C(=O)Nc2cccc(S(=O)(=O)N(C)C)c2)cc1Nc1ncnc2cnc(N3CCCC3)nc12 [III-274],3
3,COc1c(NC(=O)c2ccc(C)c(Nc3ncnc4cnc(N5CCCC5)nc34)c2)cc(C(C)(C)C)cc1NS(C)(=O)=O [III-277],23
4,Cc1ccc(C(=O)NCc2cccc(C(C)(C)C)c2)cc1Nc1ncnc2cnc(N3CCCC3)nc12 [III-278],88
5,Cc1ccc(C(=O)Nc2cc(C(F)(F)F)ccn2)cc1Nc1ncnc2cnc(N(C)CCN(C)C)nc12 [III-279],6
6,Cc1ccc(C(=O)Nc2nnc(C(F)(F)F)s2)cc1Nc1ncnc2cnc(N(C)CCN(C)C)nc12 [III-280],10000
7,Cc1ccc(C(=O)Nc2ccc(C#N)c(C(F)(F)F)c2)cc1Nc1ncnc2cnc(N(C)CCN(C)C)nc12 [III-281],5
8,Cc1ccc(C(=O)Nc2ccc(C#N)c(C(F)(F)F)c2)cc1Nc1ncnc2cnc(N3CCCN(C)CC3)nc12 [III-284],3
9,Cc1ccc(C(=O)Nc2nnc(C(F)(F)F)s2)cc1Nc1ncnc2cnc(N3CC[C@H](F)C3)nc12 [III-285],274
10,COc1ccc(C(C)(C)C)cc1NC(=O)c1ccc(C)c(Nc2ncnc3cnc(N4CC[C@H](F)C4)nc23)c1 [III-291],21
11,Cc1ccc(C(=O)Nc2ccc(C#N)c(C(F)(F)F)c2)cc1Nc1ncnc2cnc(N3CC[C@H](F)C3)nc12 [III-292],36
12,Cc1ccc(C(=O)Nc2cccc(S(=O)(=O)N(C)C)c2)cc1Nc1ncnc2cnc(N3CC[C@H](F)C3)nc12 [III-293],7
13,COc1c(NC(=O)c2ccc(C)c(Nc3ncnc4cnc(N5CC[C@H](F)C5)nc34)c2)cc(C(C)(C)C)cc1NS(C)(=O)=O [III-295],17
14,Cc1ccc(C(=O)NCc2ccc(C(C)(C)C)cc2)cc1Nc1ncnc2cnc(N3CCOCC3)nc12 [III-302],115
15,COc1ccc(C(C)(C)C)cc1NC(=O)c1ccc(C)c(Nc2ncnc3cnc(N4CCOCC4)nc23)c1 [III-306],4
16,Cc1ccc(C(=O)NCc2cccc(C(C)(C)C)c2)cc1Nc1ncnc2cnc(N3CCCCC3)nc12 [III-308],47

row,Compound,IC50 [nM]
1,Cc1ccc(C(=O)Nc2nnc(C(F)(F)F)s2)cc1Nc1ncnc2cnc(N3CCOCC3)nc12 [III-313],200
2,CN(C)CCN(C)c1ncc2ncnc(Nc3cc(C(=O)Nc4cc(C(C)(C)C)on4)ccc3F)c2n1 [III-316],3
3,CN(CCN1CCCC1)c1ncc2ncnc(Nc3cc(C(=O)Nc4cc(C(C)(C)C)on4)ccc3F)c2n1 [III-317],14
4,Cc1ccc(C(=O)Nc2cccc(S(=O)(=O)N(C)C)c2)cc1Nc1ncnc2cnc(N3CCOCC3)nc12 [III-320],2
5,COc1c(NC(=O)c2ccc(C)c(Nc3ncnc4cnc(N5CCOCC5)nc34)c2)cc(C(C)(C)C)cc1NS(C)(=O)=O [III-323],11
6,Cc1ccc(C(=O)NC2CCCCC2)cc1Nc1ncnc2cnc(N3CCOCC3)nc12 [III-325],1400
7,Cc1ccc(C(=O)NCc2cccc(C(C)(C)C)c2)cc1Nc1ncnc2cnc(N3CCOCC3)nc12 [III-327],56
8,Cc1ccc(C(=O)Nc2nnc(C(F)(F)F)s2)cc1Nc1ncnc2cnc(N3CCCCC3)nc12 [III-328],442
9,Cc1ccc(C(=O)Nc2ccc(C#N)c(C(F)(F)F)c2)cc1Nc1ncnc2cnc(N3CCCCC3)nc12 [III-333],56
10,Cc1ccc(C(=O)Nc2cccc(S(=O)(=O)N(C)C)c2)cc1Nc1ncnc2cnc(N3CCCCC3)nc12 [III-334],10
11,COc1c(NC(=O)c2ccc(C)c(Nc3ncnc4cnc(N5CCCCC5)nc34)c2)cc(C(C)(C)C)cc1NS(C)(=O)=O [III-338],41
12,Cc1ccc(C(=O)Nc2ccc(C#N)c(C(F)(F)F)c2)cc1Nc1ncnc2cnc(N3CCOCC3)nc12 [III-340],4
13,Cc1ccc(C(=O)Nc2nnc(C(F)(F)F)s2)cc1Nc1ncnc2cnc(N3CCNCC3)nc12 [III-342],2120
14,COc1ccc(C(C)(C)C)cc1NC(=O)c1ccc(C)c(Nc2ncnc3cnc(N4CCNCC4)nc23)c1 [III-343],2
15,Cc1ccc(C(=O)Nc2cccc(S(=O)(=O)N(C)C)c2)cc1Nc1ncnc2cnc(N3CCNCC3)nc12 [III-344],7

# Next, values leading:
row,IC50 [nM],Compound
1,10,Cc1ccc(C(=O)Nc2cccc(N(C)C)c2)cc1Nc1ncnc2cnc(N3CCCC3)nc12 [III-271]
2,2,Cc1ccc(C(=O)Nc2cccc(C(C)(C)C)c2)cc1Nc1ncnc2cnc(N3CCCC3)nc12 [III-272]
3,2,Cc1ccc(C(=O)Nc2cc(C(F)(F)F)ccn2)cc1Nc1ncnc2cnc(N3CCCC3)nc12 [III-275]
4,6,Cc1ccc(C(=O)Nc2cccc(C(C)(C)C#N)c2)cc1Nc1ncnc2cnc(N3CCCC3)nc12 [III-276]
5,1400,Cc1ccc(C(=O)Nc2nnc(C(F)(F)F)s2)cc1Nc1ncnc2cnc(N3CCCN(C)CC3)nc12 [III-282]
6,3,Cc1ccc(C(=O)Nc2cc(C(F)(F)F)ccn2)cc1Nc1ncnc2cnc(N3CCCN(C)CC3)nc12 [III-283]
7,3,Cc1ccc(C(=O)Nc2ccc(F)c(C(F)(F)F)c2)cc1Nc1ncnc2cnc(N3CC[C@H](F)C3)nc12 [III-286]
8,1,Cc1ccc(C(=O)Nc2cccc(C(F)(F)F)c2)cc1Nc1ncnc2cnc(N3CC[C@H](F)C3)nc12 [III-287]
9,2,COc1ccc(C(F)(F)F)cc1NC(=O)c1ccc(C)c(Nc2ncnc3cnc(N4CC[C@H](F)C4)nc23)c1 [III-288]
10,13,Cc1ccc(C(=O)Nc2ccc(Cl)c(C(F)(F)F)c2)cc1Nc1ncnc2cnc(N3CC[C@H](F)C3)nc12 [III-289]
11,1,Cc1ccc(C(=O)Nc2cccc(OC(F)(F)F)c2)cc1Nc1ncnc2cnc(N3CC[C@H](F)C3)nc12 [III-290]
12,1,Cc1ccc(C(=O)Nc2cccc(C(C)(C)C)c2)cc1Nc1ncnc2cnc(N3CCOCC3)nc12 [III-294]
13,198,Cc1ccc(C(=O)Nc2nnc(C(F)(F)F)s2)cc1Nc1ncnc2cnc(N3CCN(C)CC3)nc12 [III-296]
14,1,Cc1ccc(C(=O)Nc2ccc(F)c(C(F)(F)F)c2)cc1Nc1ncnc2cnc(N3CCN(C)CC3)nc12 [III-297]
15,1,Cc1ccc(C(=O)Nc2cccc(C(F)(F)F)c2)cc1Nc1ncnc2cnc(N3CCN(C)CC3)nc12 [III-298]
16,5,COc1ccc(C(F)(F)F)cc1NC(=O)c1ccc(C)c(Nc2ncnc3cnc(N4CCN(C)CC4)nc23)c1 [III-299]
17,4,Cc1ccc(C(=O)Nc2ccc(Cl)c(C(F)(F)F)c2)cc1Nc1ncnc2cnc(N3CCN(C)CC3)nc12 [III-300]
18,< 1,Cc1ccc(C(=O)Nc2cccc(OC(F)(F)F)c2)cc1Nc1ncnc2cnc(N3CCN(C)CC3)nc12 [III-301]
19,7,Cc1ccc(C(=O)Nc2cccc(S(=O)(=O)N(C)C)c2)cc1Nc1ncnc2cnc(N3CCN(C)CC3)nc12 [III-303]
20,< 1,COc1ccc(C(F)(F)F)cc1NC(=O)c1ccc(C)c(Nc2ncnc3cnc(N4CCOCC4)nc23)c1 [III-304]
21,2,Cc1ccc(C(=O)Nc2cccc(C(C)(C)C#N)c2)cc1Nc1ncnc2cnc(N3CCN(C)CC3)nc12 [III-305]

row,IC50 [nM],Compound
1,114,Cc1ccc(C(=O)NCc2ccc(C(F)(F)F)cc2)cc1Nc1ncnc2cnc(N3CCOCC3)nc12 [III-307]
2,4,Cc1ccc(C(=O)Nc2cccc(N(C)C)c2)cc1Nc1ncnc2cnc(N3CCOCC3)nc12 [III-309]
3,50,Cc1ccc(C(=O)NCc2cccc(C(C)(C)C)c2)cc1Nc1ncnc2cnc(N3CCN(C)CC3)nc12 [III-310]
4,9,Cc1ccc(C(=O)Nc2ccc(F)c(C(F)(F)F)c2)cc1Nc1ncnc2cnc(N3CCOCC3)nc12 [III-314]
5,< 1,Cc1ccc(C(=O)Nc2cccc(C(F)(F)F)c2)cc1Nc1ncnc2cnc(N3CCOCC3)nc12 [III-315]
6,2,CN1CCN(c2ncc3ncnc(Nc4cc(C(=O)Nc5cc(C(C)(C)C)on5)ccc4F)c3n2)CC1 [III-318]
7,< 1,Cc1ccc(C(=O)Nc2cc(C(F)(F)F)ccn2)cc1Nc1ncnc2cnc(N3CCOCC3)nc12 [III-321]
8,1,Cc1ccc(C(=O)Nc2cccc(C(C)(C)C#N)c2)cc1Nc1ncnc2cnc(N3CCOCC3)nc12 [III-322]
9,55,Cc1ccc(C(=O)NCc2cccc(C(F)(F)F)c2)cc1Nc1ncnc2cnc(N3CCOCC3)nc12 [III-324]
10,292,Cc1ccc(C(=O)Nc2ccccc2)cc1Nc1ncnc2cnc(N3CCOCC3)nc12 [III-326]
11,17,Cc1ccc(C(=O)Nc2ccc(F)c(C(F)(F)F)c2)cc1Nc1ncnc2cnc(N3CCCCC3)nc12 [III-329]
12,6,Cc1ccc(C(=O)Nc2cccc(C(F)(F)F)c2)cc1Nc1ncnc2cnc(N3CCCCC3)nc12 [III-330]
13,10,Cc1ccc(C(=O)Nc2ccc(Cl)c(C(F)(F)F)c2)cc1Nc1ncnc2cnc(N3CCCCC3)nc12 [III-331]
14,4,Cc1ccc(C(=O)Nc2cccc(OC(F)(F)F)c2)cc1Nc1ncnc2cnc(N3CCCCC3)nc12 [III-332]
15,8,Cc1ccc(C(=O)Nc2cc(C(F)(F)F)ccn2)cc1Nc1ncnc2cnc(N3CCCCC3)nc12 [III-335]
16,140,Cc1ccc(C(=O)NCc2cccc(C(C)(C)C)c2)cc1Nc1ncnc2cnc(N3CCCN(C)CC3)nc12 [III-336]
17,2,Cc1ccc(C(=O)Nc2ccc(Cl)c(C(F)(F)F)c2)cc1Nc1ncnc2cnc(N3CCOCC3)nc12 [III-337]
18,1,Cc1ccc(C(=O)Nc2cccc(C(F)(F)F)c2)cc1Nc1ncnc2cnc(N3CCNCC3)nc12 [III-339]
19,< 1,Cc1ccc(C(=O)Nc2cccc(C(C)(C)C)c2)cc1Nc1ncnc2cnc(N3CCNCC3)nc12 [III-341]
20,1,Cc1ccc(C(=O)Nc2cc(C(F)(F)F)ccn2)cc1Nc1ncnc2cnc(N3CC[C@H](F)C3)nc12 [III-345]

# From US8653087B2, “Pyrido [5, 4-D] pyrimidines as cell proliferation inhibitors” (Boehringer Ingelheim International GmbH, priority 2008, dated 2014)
